Measured values reported in publication PMC8036738, “Evaluation of Selective COX-2 Inhibition and In Silico Study of Kuwanon Derivatives Isolated from Morus alba” (International Journal of Molecular Sciences, 2021).
Read-outs that look alike come from different tables or passages of the source.

Tests used:
Format in all cases: biochemical, ovine
COX-2 [1] = assay: in vitro COX-2 enzyme inhibition assay (fluorometric inhibitor screening kit)
Experimental: (§1) Dimethyl sulfoxide (DMSO) and COX-1/2 Inhibitor Screening Kit (BioVison, California, CA, USA) were used according to the manufacturer’s instructions. All other reagents used were of the highest purity commercially available. All samples were dissolved in DMSO at a concentration of 100 mM.
(§2) The ability of the test compounds to inhibit COX-1 and COX-2 isoenzymes in vitro was determined using a Biovision fluorometric COX-1/-2 inhibitor screening assay kit. Briefly, the COX assay buffer (75 μL), COX cofactor working solution (2 μL), COX probe solution (1 μL), recombinant COX-1 or COX-2 (1 μL), arachidonic acid/NaOH solution (10 μL), and test solution (10 μL) were mixed in a 96-well plate, and the fluorescence kinetics were measured for 10 min at 25 °C. […] Fluorescence was measured using a microplate spectrophotometer (Bio-Tek, Winooski, VT, USA). Two points (T1 and T2) in the linear range of the plot were used to obtain the corresponding fluorescence values (RFU1 and RFU2). Then, the slope for all samples (S) was calculated by dividing the net ΔRFU (RFU2 − RFU1) values by the time ΔT (T2 − T1) using the following equation: Relative inhibition (%) = ((slope of the enzyme control − slope of S)/(slope of the enzyme control)) × 100.
(§3) The samples were evaluated in triplicates at five different concentrations.

COX-1 = target: T1, COX-1 (Ovis aries, UniProt P05979); assay: in vitro COX-1 enzyme inhibition assay (fluorometric inhibitor screening kit)
T1 construct: purchased BioVision
T1 sequence (P05979 25-600): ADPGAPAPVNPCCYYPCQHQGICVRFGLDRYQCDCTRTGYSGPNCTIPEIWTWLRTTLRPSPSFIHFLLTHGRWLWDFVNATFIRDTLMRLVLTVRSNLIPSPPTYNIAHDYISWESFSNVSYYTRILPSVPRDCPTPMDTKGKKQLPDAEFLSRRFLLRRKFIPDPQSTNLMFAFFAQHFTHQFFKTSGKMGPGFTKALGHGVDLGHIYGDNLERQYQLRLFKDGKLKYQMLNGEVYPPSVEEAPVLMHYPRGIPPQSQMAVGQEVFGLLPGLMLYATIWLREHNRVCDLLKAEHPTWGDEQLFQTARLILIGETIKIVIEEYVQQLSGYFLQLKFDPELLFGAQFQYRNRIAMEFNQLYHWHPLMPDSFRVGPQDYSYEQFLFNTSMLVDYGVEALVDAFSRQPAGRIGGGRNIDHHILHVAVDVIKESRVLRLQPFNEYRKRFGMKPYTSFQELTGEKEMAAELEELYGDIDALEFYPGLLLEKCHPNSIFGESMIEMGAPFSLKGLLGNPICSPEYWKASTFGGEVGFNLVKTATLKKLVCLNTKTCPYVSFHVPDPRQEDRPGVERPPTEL
Experimental: as §1, §2, §3

COX-2 [2] = target: T2, COX-2 (Homo sapiens, UniProt P35354); assay: in vitro COX-2 enzyme inhibition assay (fluorometric inhibitor screening kit)
T2 sequence (P35354 18-604): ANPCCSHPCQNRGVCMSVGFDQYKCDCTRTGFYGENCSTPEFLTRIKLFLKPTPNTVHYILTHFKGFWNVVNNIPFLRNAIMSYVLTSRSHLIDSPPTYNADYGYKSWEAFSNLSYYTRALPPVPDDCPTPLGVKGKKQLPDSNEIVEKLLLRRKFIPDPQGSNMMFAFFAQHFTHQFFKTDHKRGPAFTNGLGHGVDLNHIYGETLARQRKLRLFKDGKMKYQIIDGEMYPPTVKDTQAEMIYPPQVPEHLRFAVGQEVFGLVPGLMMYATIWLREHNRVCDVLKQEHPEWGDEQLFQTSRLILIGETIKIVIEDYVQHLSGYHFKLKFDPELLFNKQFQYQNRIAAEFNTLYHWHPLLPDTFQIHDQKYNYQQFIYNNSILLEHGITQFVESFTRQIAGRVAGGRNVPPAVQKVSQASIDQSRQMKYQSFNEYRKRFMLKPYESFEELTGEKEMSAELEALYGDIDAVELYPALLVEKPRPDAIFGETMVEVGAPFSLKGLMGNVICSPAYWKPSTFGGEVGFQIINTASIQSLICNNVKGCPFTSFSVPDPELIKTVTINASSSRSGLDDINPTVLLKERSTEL
Experimental: as §1, §2, §3

[3] = triplicates at five concentrations, read-out: IC50 COX-1

IC50 (COX-1) | COX-2 inhibition activity (in words) (COX-2 [2]) | Compound | SI (selectivity index, COX-1 IC50/COX-2 IC50) (COX-2 [1]) | IC50 (COX-1; [3])
– | – | CC(C)=CCc1c(-c2ccc(O)c3c2OC(C)(C)C=C3)oc2cc(O)cc(O)c2c1=O [Kuwanon A, kuwanon A] | >7.1 | > 100 µM
– | – | CC(C)=CCc1c(-c2ccc3c(c2O)C=CC(C)(C)O3)oc2cc(O)cc(O)c2c1=O [Kuwanon B, kuwanon B] | 1.3 | 36 µM
67 µM | – | CC(C)=CCc1c(-c2ccc(O)cc2O)oc2c(CC=C(C)C)c(O)cc(O)c2c1=O [Kuwanon C, kuwanon C] | – | –
– | – | CC(C)=CCc1c(O)ccc(C(=O)C2C(c3c(O)cc(O)c4c(=O)c(CC=C(C)C)c(-c5ccc(O)cc5O)oc34)C=C(C)CC2c2ccc(O)cc2O)c1O (stereo not shown) [Kuwanon H, kuwanon H] | – | 37 µM
– | no COX-2 inhibition activity | CC(C)=CCc1c(-c2ccc(O)cc2O)oc2c(C3C=C(C)CC(c4ccc(O)cc4O)C3C(=O)c3ccc(O)cc3O)c(O)cc(O)c2c1=O (stereo not shown) [Kuwanon G, kuwanon G] | – | > 100 µM
– | – | CC(C)=CCC/C(C)=C/Cc1cc(C2CC(=O)c3c(O)cc(O)cc3O2)c(O)cc1O (stereo not shown) [Kuwanon E, kuwanon E] | 1.4 | 46 µM
